Source: patent US11059718B2, “Methods and compositions using peptides and proteins with C-terminal elements” (Sanford Burnham Prebys Medical Discovery Institute, priority 2009, dated 2021)
Where no end group is shown, it is not given here. [ ]: non-standard residue; d: D form.

Assays:
[1] = test system: orthotopic MIA PaCa-2 human pancreatic carcinoma xenografts; experiment: In vivo systemic permeability assay with Evans Blue, pancreatic tumor xenografts; design: species or system mice; conditions: 100 nmol (or 100 μg) peptide 5 min after Evans Blue, tissues collected 30 min later
Description: FIGS. 5A and 5B show tumor-specific entry of Evans Blue (albumin) into extravascular tumor tissue in iRGD-injected mice. iRGD is SEQ ID NO:3. iRGDD is SEQ ID NO:4. Mice bearing orthotopically transplanted pancreatic or breast cancer xenografts were injected with […] of Evans Blue, followed 5 min later by 100 μg of iRGD peptide in PBS, PBS alone, or a control peptide. Tumors and tissues were collected 30 min. later and examined for dye content. […] About 4 times more dye accumulated in the iRGD-treated tumors than in control tumors. The control peptides included non-CendR RGD peptides.
FIGS. 9A-9D show a tumor-specific entry of Evans Blue into extravascular tumor tissue in iRGD-injected mice. iRGD is SEQ ID NO:3. iRGDD is SEQ ID NO:4. […] (FIGS. 9B to 9D) Quantification of Evans Blue in the pancreatic tumors and tissues. […]
Five min later, the mice received an intravenous injection with 100 μl of PBS with or without iRGD or control peptides at various concentrations. […] For Evans Blue quantification, the dye was extracted from tissues using N,N-dimethylformamide for 24 hours at 37° C. and the dye content was quantified by measuring the absorbance at 600 nm with a spectrophotometer. […] Quantification of the positive area in immunohistochemically stained sections, and total amount of antibodies within the tissues are described elsewhere in this manuscript.

[2] = test system: orthotopic 22Rv1 tumors; experiment: 22Rv1 xenograft treatment with DOX-liposomes; format: in vivo, mice; conditions: daily i.v. 1 mg DOX/kg + 2 μmol/kg peptide, 17 days, tumor weight
Description: (FIGS. 14A and 14B) Nude mice bearing orthotopic 22Rv1 human prostate tumors were intravenously injected with DOX-liposomes (3 mg DOX/kg) followed 5 min later by 100 nmol iRGD or PBS. Tumors and tissues were collected 3 hours later. In (FIG. 14A), the tumors were sectioned and stained with an anti-CD31 antibody. The doxorubicin is represented by the light specs that look like four halos in the left panel. Scale bars=200 μm, n=3. In (FIG. 14B), DOX in the tissues was quantified. […] The tumors were harvested and weighed after 17 days of treatment. The number of mice in each group was 5. One of 3 experiments that gave similar results is shown. (FIG. 14D) TUNEL staining was performed immunohistochemically on tissue sections of the tumor and heart samples from the treatment study, and quantified for positivity. Statistical analyses were performed with Student's r-test in (FIG. 14B), and ANOVA in (FIG. 14C) and (FIG. 14D); error bars, s.e.m.; n.s., not significant; single asterisk, p<0.05; double asterisk, p<0.01; triple asterisk, p<0.001.
Nude mice bearing 2 week-old orthotopic 22Rv1 tumors received daily intravenous injections of DOX-liposomes ([…]) or PBS, combined with 2 μmol/kg iRGD or PBS. The tumors were harvested and weighed after 17 days of treatment. The number of animals in each group was 13. […]

[3] = test system: live, unfixed cells; experiment: Binding and uptake of peptide-functionalized quantum dots by cells; format: cell-based; conditions: streptavidin qdots coated with biotinylated peptide
Description: Biotinylated peptides were used to functionalize the 605ITK streptavidin qdots (Invitrogen, Carlsbad, Calif.) according to the manufacturer's instructions.
Streptavidin ITK-605 quantum dots (Invitrogen, Carlsbad, Calif.) were functionalized with biotinylated peptides by incubation with 100 fold molar excess of peptide followed by removal of free peptide by dialysis.

[4] = test system: PPC1 prostate cancer cells; experiment: T7 phage binding and internalization on cultured PPC1 cells; format: cell-based, human; conditions: for phage binding to and internalization into PPC1 cells: peptide displayed at C-terminus of T7 phage coat protein, binding at 4° C., internalization at 37° C. with pH 2.5 wash; for effect of trypsin treatment of phage on binding to PPC1 cells: peptide-displaying phage treated with trypsin before cell binding
Description: (§1) To measure phage binding, 10^6 cells in binding buffer (DMEM containing 1% BSA) were incubated with 10^9 pfu/ml of T7 phage for 1 hour at 4° C. The cells were washed 4 times with the binding buffer, lysed in LB bacterial growth medium containing 1% NP-40, and titrated. Phage internalization assays used the same procedure, except that the cells were incubated with the phage at 37° C., and that an acidic buffer (500 mM sodium chloride, 0.1 M glycine, 1% BSA, pH 2.5) was used instead of binding buffer in the second wash.
Inhibitors of phage binding and internalization (heparin, chondroitin, glycocalyx removal enzymes, endocytosis inhibitors, free peptides, quantum dots and UV-inactivated phage) were added to the cells 20 minutes prior to incubation with phage. Endocytosis inhibitors used in this study were the following: nystatin (50 μg/ml), genistein (100 μg/ml), chlorpromazine (5 μg/ml), 5-(N-ethyl-N-isopropyl)amiloride (100 μM), wortmannin (10 μM).
M21 melanoma cells were transiently transfected with these constructs using lipofectamine according to manufacturer's instructions (Invitrogen, Carlsbad, Calif.). Protease treatment of phage and qdots. 10^9 phage particles or 50 μl of peptide-coated qdots phage were treated with 50 iu of uPA, 25 μg of crystalline trypsin, 50 iu of thrombin, or 25 μg of collagenase type I (all Sigma, St. Louis, Mo.).

[5] = Stability of methylated iRGD peptides against proteolysis; format: in vitro ADME; conditions: peptide bond protected by C-methylation or N-methylation
[6] = molecular target: T1, NRP-1 (Homo sapiens, UniProt O14786); experiment: Affinity chromatography of PPC-1 tumor extracts on immobilized RPARPAR peptide; format: binding; conditions: PPC-1 tumor extract; confirmed by immunoblotting
T1 construct: from tissue; host or cells: orthotopic PPC-1 prostate tumor xenografts grown in BALB/c athymic nude mice
Description: PPC-1 tumors were lysed in PBS containing 200 mM n-octyl-beta-D-glucopyranoside, followed by incubation with RPARPAR (SEQ ID NO:2)-coated Sulfolink-beads (Pierce, Rockford, Ill.) and elution in lysis buffer containing 2 mM free RPARPAR (SEQ ID NO:2) peptide. Gel fragments excised from silver stained gel of eluted fractions were subjected to MALDI-TOF mass spectrometry at the Burnham Institute for Medical Research Proteomics Resource.
Orthotopic PPC-1 tumors were homgenized in PBS containing 400 mM n-octyl-beta-D-glucopyranoside, 1 mM MgSO4, 1 mM MnCl2, 1 mM CaCl2) and 1 tablet/5 ml of EDTA-free protease inhibitors cocktail (Sigma, St. Louis, Mo.). After 6 hours of extraction on a rotating platform at 4° C., the lysate was cleared by centrifugation (20 minutes at 14,000 rpm in refrigerated microcentrifuge) and loaded to an affinity column prepared by coupling cysteine-tagged RPARPAR (SEQ ID NO:2) peptide to Sulfolink coupling gel according to the manufacturer's instructions (Pierce, Rockford, Ill.). After overnight binding, the column was washed with a column wash buffer containing 200 mM n-octyl-beta-D-glucopyranoside, but otherwise identical to the lysis buffer, followed by elution with 2 mM free RPARPAR (SEQ ID NO:2) peptide in the same buffer. […]

[7] = test system: NRP-1; experiment: RPARPAR binding and internalization in M21 melanoma cells with or without NRP-1 expression; format: cell-based; conditions: M21 cells, which do not express NRP-1
Description: as §1, with “For biopanning and phage binding studies (Hoffman, J. A. et al., 2004), cultured cells were grown to confluence and harvested with trypsin and mouse organs were dissociated using Medimachine (BD Biosciences, San Jose, Calif.). To” for “To”
(§2) Expression construct of the wild type NRP-1 cDNA in pcDNA3.1(+) was a kind gift of Dr. Michael Klagsbrun. Site directed mutagenesis was used to generate triple mutation of the VEGF-165 binding site in the b1 domain of NRP-1 (S346A-E348A-349A) by replacing […] (SEQ ID NO:29; encoding amino acids SKET) with […] (SEQ ID NO:30; encoding AKAA).
(§3) M21 melanoma cells were transiently transfected with these constructs using lipofectamine according to manufacturer's instructions (Invitrogen, Carlsbad, Calif.). Protease treatment of phage and qdots. […]

[8] = molecular target: T2, NRP-1 (Homo sapiens, UniProt O14786, E348A/S346A/T349A); experiment: as above; format: cell-based; conditions: triple mutation of VEGF-165 binding site in b1 domain
T2 construct: expressed in transfected cells; host or cells: M21 melanoma cells, transient lipofectamine transfection
Description: as §1, with “For biopanning and phage binding studies (Hoffman, J. A. et al., 2004), cultured cells were grown to confluence and harvested with trypsin and mouse organs were dissociated using Medimachine (BD Biosciences, San Jose, Calif.). To” for “To”
as §2, §3

T1 sequence (O14786 22-923): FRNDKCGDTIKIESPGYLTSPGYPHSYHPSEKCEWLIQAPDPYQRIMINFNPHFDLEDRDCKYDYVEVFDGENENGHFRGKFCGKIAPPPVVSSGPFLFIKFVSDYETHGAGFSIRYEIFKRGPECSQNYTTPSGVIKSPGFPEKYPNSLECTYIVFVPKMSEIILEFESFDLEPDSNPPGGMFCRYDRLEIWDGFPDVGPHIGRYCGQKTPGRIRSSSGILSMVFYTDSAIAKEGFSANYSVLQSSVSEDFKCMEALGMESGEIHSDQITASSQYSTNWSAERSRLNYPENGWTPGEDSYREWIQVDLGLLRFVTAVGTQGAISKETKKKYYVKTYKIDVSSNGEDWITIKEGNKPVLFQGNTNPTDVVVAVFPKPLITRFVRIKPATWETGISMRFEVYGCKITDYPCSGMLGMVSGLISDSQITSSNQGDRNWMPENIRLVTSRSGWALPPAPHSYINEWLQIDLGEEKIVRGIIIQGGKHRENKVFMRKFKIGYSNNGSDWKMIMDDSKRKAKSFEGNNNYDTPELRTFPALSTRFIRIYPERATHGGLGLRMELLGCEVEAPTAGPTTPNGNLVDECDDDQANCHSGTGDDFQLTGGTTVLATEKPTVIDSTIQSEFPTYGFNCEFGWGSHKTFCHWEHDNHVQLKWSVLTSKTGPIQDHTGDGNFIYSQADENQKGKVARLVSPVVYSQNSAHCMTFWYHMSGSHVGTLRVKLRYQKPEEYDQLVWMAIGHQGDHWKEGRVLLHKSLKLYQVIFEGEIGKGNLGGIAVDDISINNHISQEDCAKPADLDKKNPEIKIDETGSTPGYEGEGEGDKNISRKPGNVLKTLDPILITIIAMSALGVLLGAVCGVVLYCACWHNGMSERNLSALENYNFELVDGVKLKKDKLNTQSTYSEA
T2 sequence (O14786 22-923 S346A/E348A/T349A): as the sequence (O14786 22-923) above, with S325A, E327A, T328A counted along it

cyclo(-RGDfK-)
Evans Blue leakage/accumulation in tumor (vascular permeability effect) [1]: inactive
anti-tumor effect of DOX-liposomes 1 mg DOX/kg combined with peptide [2]: failed to enhance the effect of the drug

rparpar ([dR][dP][dA][dR][dP][dA][dR]; also: on quantum dots) [D-rparpar, RPARPAR peptide comprised of D-amino acids, on quantum dots]
binding and uptake of peptide-functionalized quantum dots [3]: greatly reduced ability to trigger uptake of quantum dots

ATWLPPR [A7R, reference compound]
phage binding to and internalization into PPC1 cells [4]: bound to and were taken up by PPC-1 cells

CDCRGDCFC [RGD-4C, reference compound]
Evans Blue leakage/accumulation in tumor (vascular permeability effect) [1]: inactive
effect of trypsin treatment of phage on binding to PPC1 cells [4]: no effect

RPARPARA
phage binding to and internalization into PPC1 cells [4]: abolished cell binding and internalization
effect of trypsin treatment of phage on binding to PPC1 cells [4]: restored PPC-1 cell binding

CRGDC [non-internalizing, non-CendR RGD peptide, reference compound]
effect of trypsin treatment of phage on binding to PPC1 cells [4]: no effect

C(CMe)RGDKGPDC
stability against proteolysis [5]: stable against unwanted proteolysis

TKPPR [enhanced tuftsin, reference compound]
phage binding to and internalization into PPC1 cells [4]: bound to and were taken up by PPC-1 cells

CR(NMe)GDKGPDC
stability against proteolysis [5]: stable against unwanted proteolysis

RPARPAR [prototypic CendR peptide]
protein eluted from immobilized peptide with free peptide [6]: 130-kDa protein, identified by MALDI-TOF mass spectroscopy as NRP-1
binding and internalization by M21 melanoma cells [7]: do not bind nor internalize
binding by M21 cells transfected with NRP-1 binding pocket mutant [8]: did not confer
effect of inhibitors of cell internalization pathways on peptide-mediated internalization ([4]; endocytosis inhibitors added 20 minutes before phage): None of the available inhibitors of the various cell internalization pathways inhibited internalization
effect of unlabeled peptide on binding and uptake of VEGF-C7, enhanced tuftsin or A7R phage by PPC-1 cells ([4]; unlabeled peptide included in the binding buffer): both activities were reduced
